From US9580416B2, “Inhibitors of Bruton's tyrosine kinase” (PHARMACYCLICS LLC, priority 2014, dated 2017)
pIC50: −log10 of the molar value.

What was measured:
Format in all cases: biochemical
Btk = Btk (Homo sapiens, UniProt Q06187); assay: Btk kinase activity, TR-FRET assay; details: read-out: Btk (IC50)
How it was run: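 Enzyme (Btk 0.5 nM; Lck 6 nM) reacted 1 h with inhibitor, ATP at Km and biotin-peptide substrate in pH 7.4 buffer, 10% DMSO. Phosphopeptide detected by Eu-p-Tyr100 antibody plus streptavidin-APC (665/615 nm). IC50 calculated from fitted Ki(app) via ATP/Km correction plus half total enzyme.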

Lck = Lck (Homo sapiens, UniProt P06239); assay: Lck kinase activity, TR-FRET assay; details: read-out: LCK (IC50)
Protocol: Btk kinase activity is determined using a time-resolved fluorescence resonance energy transfer (TR-FRET) methodology. Measurements are performed in a reaction volume of 50 μL using 96-well assay plates. Kinase enzyme, inhibitor, ATP (at the Km for the kinase), and 1 […] (Biotin-AVLESEEELYSSARQ-NH2) are incubated in a reaction buffer composed of 20 mM Tris, 50 mM NaCl, MgCl2 (5-25 mM depending on the kinase), MnCl2 (0-10 mM), 1 mM DTT, 0.1 mM EDTA, 0.01% bovine serum albumin, 0.005% Tween-20, and 10% DMSO at pH 7.4 for one hour. The reaction is quenched by the addition of 1.2 equivalents of EDTA (relative to divalent cation) in 25 μL of 1× Lance buffer (Perkin-Elmer). Streptavidin-APC (Perkin-Elmer) and Eu-labeled p-Tyr100 antibody (Perkin-Elmer) in 1× Lance buffer are added in a 25 μL volume to give final concentrations of 100 nM and 2.5 nM, respectively, and the mixture is allowed to incubate for one hour. The TR-FRET signal is measured on a multimode plate reader with an excitation wavelength (λEx) of 330 nm and detection wavelengths (λEm) of 615 and 665 nm. Activity is determined by the ratio of the fluorescence at 665 nm to that at 615 nm. For each compound, enzyme activity is measured at various concentrations of compound. Negative control reactions are performed in the absence of inhibitor in replicates of six, and two no-enzyme controls are used to determine baseline fluorescence levels. Inhibition constants, Ki(app), ware obtained using the program BatchKi (Kuzmic et al. (2000), Anal. Biochem. 286:45-50). IC50s are obtained according to the equation: IC50={Ki(app)/(1+[ATP]/Km^ATP)}+[E]total/2;
For all kinases, [ATP]=Km^ATP, [Btk]total=0.5 nM and [Lck]total=6 nM.

EGFR = EGFR (Homo sapiens, UniProt P00533); assay: Inhibition of a panel of kinases, in vitro HotSpot kinase assay: EGFR
Protocol: The degree of inhibition of a panel of kinases is determined using the in vitro HotSpot kinase assay (purified enzymes, ^33P-ATP, an appropriate substrate and 1 uM ATP).

Sequence of Lck (P06239 whole entry, species assumed): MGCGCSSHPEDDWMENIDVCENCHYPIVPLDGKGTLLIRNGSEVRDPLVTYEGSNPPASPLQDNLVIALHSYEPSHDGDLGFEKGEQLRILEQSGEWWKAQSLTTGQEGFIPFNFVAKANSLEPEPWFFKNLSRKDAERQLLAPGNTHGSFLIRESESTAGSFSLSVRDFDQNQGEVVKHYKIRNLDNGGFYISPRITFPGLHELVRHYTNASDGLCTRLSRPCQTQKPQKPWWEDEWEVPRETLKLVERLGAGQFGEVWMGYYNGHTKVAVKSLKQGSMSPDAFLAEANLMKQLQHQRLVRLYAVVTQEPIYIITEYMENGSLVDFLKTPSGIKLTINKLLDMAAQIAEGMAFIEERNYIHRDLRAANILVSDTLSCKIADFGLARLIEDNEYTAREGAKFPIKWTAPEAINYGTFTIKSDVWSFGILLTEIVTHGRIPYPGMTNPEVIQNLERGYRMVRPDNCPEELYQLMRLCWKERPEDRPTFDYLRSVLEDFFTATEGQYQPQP
Sequence of Btk (Q06187 whole entry): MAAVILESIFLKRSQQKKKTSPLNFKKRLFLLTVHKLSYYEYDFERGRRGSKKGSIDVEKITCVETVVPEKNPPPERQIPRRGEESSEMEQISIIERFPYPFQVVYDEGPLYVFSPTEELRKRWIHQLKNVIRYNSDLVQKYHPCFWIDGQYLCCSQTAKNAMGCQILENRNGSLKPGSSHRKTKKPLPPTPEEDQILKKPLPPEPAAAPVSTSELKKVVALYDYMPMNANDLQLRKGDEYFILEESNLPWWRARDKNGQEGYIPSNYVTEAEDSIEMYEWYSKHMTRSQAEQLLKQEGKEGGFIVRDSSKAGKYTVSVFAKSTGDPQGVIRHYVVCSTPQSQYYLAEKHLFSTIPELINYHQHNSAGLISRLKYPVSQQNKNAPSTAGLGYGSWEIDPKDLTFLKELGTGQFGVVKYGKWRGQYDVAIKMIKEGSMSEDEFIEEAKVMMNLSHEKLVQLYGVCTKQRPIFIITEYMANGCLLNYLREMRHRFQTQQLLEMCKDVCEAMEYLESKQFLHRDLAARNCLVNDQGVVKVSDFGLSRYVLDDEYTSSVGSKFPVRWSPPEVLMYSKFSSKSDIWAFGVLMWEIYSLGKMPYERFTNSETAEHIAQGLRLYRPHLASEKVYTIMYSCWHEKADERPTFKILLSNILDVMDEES
Sequence of EGFR (P00533 25-1210): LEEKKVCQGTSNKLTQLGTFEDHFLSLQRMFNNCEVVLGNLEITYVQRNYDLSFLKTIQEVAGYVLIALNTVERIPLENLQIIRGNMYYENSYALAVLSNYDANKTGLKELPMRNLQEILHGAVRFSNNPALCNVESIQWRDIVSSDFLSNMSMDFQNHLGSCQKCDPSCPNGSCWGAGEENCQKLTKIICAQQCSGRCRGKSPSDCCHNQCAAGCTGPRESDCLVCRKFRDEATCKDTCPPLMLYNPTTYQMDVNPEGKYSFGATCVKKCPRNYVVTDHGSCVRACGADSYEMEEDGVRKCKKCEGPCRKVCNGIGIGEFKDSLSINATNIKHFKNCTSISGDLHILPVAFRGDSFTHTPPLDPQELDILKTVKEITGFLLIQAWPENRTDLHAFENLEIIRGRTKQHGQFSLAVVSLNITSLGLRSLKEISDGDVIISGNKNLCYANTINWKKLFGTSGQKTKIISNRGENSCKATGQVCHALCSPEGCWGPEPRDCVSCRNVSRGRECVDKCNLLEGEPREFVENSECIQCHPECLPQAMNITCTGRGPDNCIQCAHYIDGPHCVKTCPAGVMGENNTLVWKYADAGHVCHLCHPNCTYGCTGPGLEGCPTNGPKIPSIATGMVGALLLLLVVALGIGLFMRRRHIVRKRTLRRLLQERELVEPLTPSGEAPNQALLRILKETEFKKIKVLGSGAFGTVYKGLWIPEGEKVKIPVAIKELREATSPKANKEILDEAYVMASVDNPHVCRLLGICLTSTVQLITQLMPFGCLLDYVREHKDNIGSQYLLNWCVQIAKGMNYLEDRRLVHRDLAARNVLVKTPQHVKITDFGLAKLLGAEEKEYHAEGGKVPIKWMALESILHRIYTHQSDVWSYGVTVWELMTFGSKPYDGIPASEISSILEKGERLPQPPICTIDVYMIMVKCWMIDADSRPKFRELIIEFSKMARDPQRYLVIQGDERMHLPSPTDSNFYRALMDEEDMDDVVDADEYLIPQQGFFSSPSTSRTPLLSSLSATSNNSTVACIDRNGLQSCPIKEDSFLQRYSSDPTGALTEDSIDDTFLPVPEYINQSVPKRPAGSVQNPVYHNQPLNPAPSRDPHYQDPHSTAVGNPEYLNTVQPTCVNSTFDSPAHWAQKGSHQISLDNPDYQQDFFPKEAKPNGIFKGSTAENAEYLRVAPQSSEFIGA

SMILES	pIC50 (Btk)	pIC50 (Lck)	pIC50 (EGFR)
N#CCC(=O)N1CC[C@@H](Nc2n[nH]c3nccc(Oc4ccc(Oc5ccccc5)cc4)c23)C1 [compound 44]	> 7.00	> 7.00	6.00 to 7.00
CN1CC[C@@H](Nc2n[nH]c3nccc(Oc4ccc(Oc5ccccc5)cc4)c23)C1 [compound 45]	> 7.00	> 7.00	6.00 to 7.00
CC(=O)N1CC[C@@H](Nc2n[nH]c3nccc(Oc4ccc(Oc5ccccc5)cc4)c23)C1 [compound 46]	> 7.00	> 7.00	6.00 to 7.00
c1ccc(Oc2ccc(Oc3ccnc4[nH]nc(NC5CCOCC5)c34)cc2)cc1 [compound 47]	> 7.00	> 7.00	> 7.00
CN(C/C=C/C(=O)N1CC[C@@H](Nc2n[nH]c3ncnc(Oc4ccc(Oc5ccccc5)cc4)c23)C1)C1CC1 [compound 48]	6.00 to 7.00	5.00 to 6.00	6.00 to 7.00
CCC(=O)N1CCC[C@@H](Nc2n[nH]c3ncnc(Oc4ccc(Oc5ccccc5)cc4)c23)C1 [compound 51]	6.00 to 7.00	6.00 to 7.00	> 7.00
CN(C/C=C/C(=O)N1CC[C@@H](Nc2n[nH]c3nccc(Oc4ccc(C(=O)Nc5ccccn5)cc4)c23)C1)C1CC1 [compound 55]	> 7.00	5.00 to 6.00	< 5.00
CCCc1ccnc(NC(=O)c2ccc(Oc3ccnc4[nH]nc(N[C@@H]5CCN(C(=O)/C=C/CN(C)C6CC6)C5)c34)cc2)c1 [compound 56]	> 7.00	6.00 to 7.00	5.00 to 6.00
CN(C/C=C/C(=O)Nc1ccccc1Nc1n[nH]c2nccc(Oc3ccc(Oc4ccccc4)cc3)c12)C1CC1 [compound 57]	< 5.00	< 5.00	< 5.00
COc1ccnc(NC(=O)c2ccc(Oc3ccnc4[nH]nc(N[C@@H]5CCN(C(=O)/C=C/CN(C)C6CC6)C5)c34)cc2)c1 [compound 58]	> 7.00	5.00 to 6.00	< 5.00
NC(=O)c1cc(Nc2n[nH]c3nccc(Oc4ccc(Oc5ccccc5)cc4)c23)ccn1 [compound 59]	6.00 to 7.00	> 7.00	6.00 to 7.00
CN(C/C=C/C(=O)N1CC[C@@H](Nc2n[nH]c3nccc(Oc4ccc(C(=O)Nc5cc(C6CC6)ccn5)cc4)c23)C1)C1CC1 [compound 60]	> 7.00	6.00 to 7.00	5.00 to 6.00
CC(C)c1ccnc(NC(=O)c2ccc(Oc3ccnc4[nH]nc(N[C@@H]5CCN(C(=O)/C=C/CN(C)C6CC6)C5)c34)cc2)c1 [compound 61]	> 7.00	6.00 to 7.00	5.00 to 6.00
CN(C/C=C/C(=O)N1CC[C@@H](Nc2n[nH]c3nccc(Oc4ccc(C(=O)Nc5cc(C#N)ccn5)cc4)c23)C1)C1CC1 [compound 62]	> 7.00	5.00 to 6.00	5.00 to 6.00
CN(C/C=C/C(=O)N1CC[C@@H](Nc2n[nH]c3nccc(Oc4ccc(C(=O)Nc5ncccn5)cc4)c23)C1)C1CC1 [compound 63]	6.00 to 7.00	< 5.00	< 5.00
CN(C/C=C/C(=O)N1CC[C@@H](Nc2n[nH]c3nccc(Oc4ccc(C(=O)Nc5ccncn5)cc4)c23)C1)C1CC1 [compound 64]	6.00 to 7.00	< 5.00	< 5.00

SMILES	pIC50 (Btk)	pIC50 (Lck)	pIC50 (EGFR)
N#CCNC(=O)c1cc(Nc2n[nH]c3nccc(Oc4ccc(Oc5ccccc5)cc4)c23)ccn1 [compound 65]	6.00 to 7.00	> 7.00	6.00 to 7.00
CCC(=O)N1CC[C@@H](Nc2n[nH]c3nccc(Oc4ccc(C(=O)Nc5cc(C(F)(F)F)ccn5)cc4)c23)C1 [compound 66]	> 7.00	6.00 to 7.00	5.00 to 6.00
CN(C/C=C/C(=O)N1CC[C@@H](Nc2n[nH]c3nccc(Oc4ccc(C(=O)Nc5ncc[nH]5)cc4)c23)C1)C1CC1 [compound 67]	6.00 to 7.00	< 5.00	< 5.00
CN(C)c1ccnc(NC(=O)c2ccc(Oc3ccnc4[nH]nc(N[C@@H]5CCN(C(=O)/C=C/CN(C)C6CC6)C5)c34)cc2)c1 [compound 68]	> 7.00	5.00 to 6.00	< 5.00
CCC(=O)N1CC[C@@H](Nc2n[nH]c3nccc(Oc4ccc(C(=O)Nc5nc6ccccc6[nH]5)cc4)c23)C1 [compound 69]	6.00 to 7.00	6.00 to 7.00	< 5.00
CCC(=O)N1CC[C@@H](Nc2n[nH]c3nccc(Nc4ccc(C(=O)Nc5cc(C(F)(F)F)ccn5)cc4)c23)C1 [compound 70]	> 7.00	6.00 to 7.00	5.00 to 6.00
CCC(=O)N1CC[C@@H](Oc2n[nH]c3nccc(Nc4ccc(C(=O)Nc5cc(C(F)(F)F)ccn5)cc4)c23)C1 [compound 71]	> 7.00	6.00 to 7.00	5.00 to 6.00
CCC(=O)N1CC[C@@H](Nc2n[nH]c3nccc(Oc4ccc(C(=O)Nc5nccn5C)cc4)c23)C1 [compound 73, N-(1-methyl-1H-imidazol-2-yl)-4-[(3-{[(3R)-1-propanoylpyrrolidin-3-yl]amino}-1H-pyrazolo[3,4-b]pyridin-4-yl)oxy]benzamide]	< 5.00	< 5.00	< 5.00
CCC(=O)N1CC[C@@H](Nc2n[nH]c3nccc(Oc4ccc(C(=O)Nc5nccc(=O)[nH]5)cc4)c23)C1 [compound 74, N-(6-oxo-1,6-dihydropyrimidin-2-yl)-4-[(3-{[(3R)-1-propanoylpyrrolidin-3-yl]amino}-1H-pyrazolo[3,4-b]pyridin-4-yl)oxy]benzamide]	< 5.00	< 5.00	< 5.00
CCC(=O)N1CC[C@@H](Nc2n[nH]c3nccc(Oc4ccc(C(=O)Nc5nnc(C)[nH]5)cc4)c23)C1 [compound 75, N-(5-methyl-4H-1,2,4-triazol-3-yl)-4-[(3-{[(3R)-1-propanoylpyrrolidin-3-yl]amino}-1H-pyrazolo[3,4-b]pyridin-4-yl)oxy]benzamide]	< 5.00	< 5.00	< 5.00
CN(C/C=C/C(=O)N1CC[C@@H](Nc2n[nH]c3nccc(Oc4ccc(C(=O)Nc5cc(OC6CC6)ccn5)cc4)c23)C1)C1CC1 [compound 76, (R,E)-N-(4-cyclopropoxypyridin-2-yl)-4-(3-(1-(4-(cyclopropyl(methyl)amino)but-2-enoyl)pyrrolidin-3-ylamino)-1H-pyrazolo[3,4-b]pyridin-4-yloxy)benzamide]	> 7.00	6.00 to 7.00	6.00 to 7.00
N#Cc1ccnc(NC(=O)c2ccc(Oc3ccnc4[nH]nc(NC5CCOCC5)c34)cc2)c1 [compound 77, N-(4-cyanopyridin-2-yl)-4-({3-[(oxan-4-yl)amino]-1H-pyrazolo[3,4-b]pyridin-4-yl}oxy)benzamide]	> 7.00	6.00 to 7.00	5.00 to 6.00
CCOC(=O)N1CCC[C@@H](Nc2n[nH]c3nccc(Oc4ccc(C(=O)Nc5cc(C#N)ccn5)cc4)c23)C1 [compound 78, ethyl (3R)-3-[(4-{4-[(4-cyanopyridin-2-yl)carbamoyl]phenoxy}-1H-pyrazolo[3,4-b]pyridin-3-yl)amino]piperidine-1-carboxylate]	> 7.00	6.00 to 7.00	5.00 to 6.00
CCNC(=O)N1CCC[C@@H](Nc2n[nH]c3nccc(Oc4ccc(C(=O)Nc5cc(C#N)ccn5)cc4)c23)C1 [compound 79, (3R)-3-[(4-{4-[(4-cyanopyridin-2-yl)carbamoyl]phenoxy}-1H-pyrazolo[3,4-b]pyridin-3-yl)amino]-N-ethylpiperidine-1-carboxamide]	> 7.00	6.00 to 7.00	> 7.00
COCCC(=O)N1CCC[C@@H](Nc2n[nH]c3nccc(Oc4ccc(C(=O)Nc5cc(C#N)ccn5)cc4)c23)C1 [compound 80, N-(4-cyanopyridin-2-yl)-4-[(3-{[(3R)-1-(3-methoxypropanoyl)piperidin-3-yl]amino}-1H-pyrazolo[3,4-b]pyridin-4-yl)oxy]benzamide]	> 7.00	6.00 to 7.00	> 7.00
N#Cc1ccnc(NC(=O)c2ccc(Oc3ccnc4[nH]nc(N[C@@H]5CCCN(C(=O)C6CC6)C5)c34)cc2)c1 [compound 81, N-(4-cyanopyridin-2-yl)-4-[(3-{[(3R)-1-cyclopropanecarbonylpiperidin-3-yl]amino}-1H-pyrazolo[3,4-b]pyridin-4-yl)oxy]benzamide]	> 7.00	6.00 to 7.00	5.00 to 6.00
